The record followed here is patent US9005651B2, “Sustained drug delivery system” (Tohoku University, priority 2009, dated 2015).

A short description of series [1]: Low molecular weight drug (FA) slow release from PEGDM:TEGDM sheets. The class given is physicochemical. Conditions: PEGDM:TEGDM 100:0 to 0:100, capsules in PBS. As for the experimental part: Sheets having changed mixing ratios of PEGDM (Mn 750) and TEGDM (Mw 286.3) were prepared to evaluate their low molecular weight drug slow-releasing capability. The low molecular weight drug used sodium fluorescein (FA, a fluorescent contrast agent clinically used) as a model. PEG sheets were prepared in the 6 patterns of PEGDM:TEGDM=100:0, 95:5, 90:10, 80:20, 50:50, and 0:100; FA was capsulated; and the capsules were immersed in PBS to measure the fluorescence intensity at regular intervals. […] The slow-releasing capability was irrespective of the presence of collagen particles.

Series [2] is described as follows: Implantation of capsule on the sclera of rabbit's eye (fluorescence of hydatoid, fundus camera, tissue). Conditions: 3 days after implantation. The class given is in vivo. The protocol: A capsule (the collagen particle concentration of its porous PEG sheet: 500 mg/ml) packed with a PEG pellet of FA was implanted on the sclera of the eye of rabbits. One eye of each rabbit was used as a non-implantation control. The conjunctiva was incised 5 mm and the capsule was implanted therethrough into 2 to 15 mm of the corneal limbus. The capsule was fixed by suture. The conjunctiva was finally sutured to terminate the implantation. The hydatoid (100 μl) was collected every other week and the fluorescence intensity thereof was measured using a fluorescence plate reader. Using a fluorescence camera, the fluorochrome in the device implanted on the sclera and the distribution of the pigment slowly released were photographed. […] In FIG. 22, the fluorescences of the cell nucleus (blue fluorescence) and the model drug (green fluorescence) are observed. In FIG. 22, the mark * represents the position in which the PEG capsule was present. […] When the drug passes through RP, the drug is fed to RE. Because RP has a high barrier function, the pigment stops here and is concentrated.

Consider `O=C([O-])c1ccccc1-c1c2ccc(=O)cc-2oc2cc([O-])ccc12.[Na+].[Na+]` [FA, sodium fluorescein], for which the “FA slow-releasing capability versus PEGDM:TEGDM ratio” value in series [1] was “increased mixing ratio of TEGDM suppressed the FA slow-releasing capability”. Moreover, the tissue fluorescence distribution result in series [2] is “strong fluorescence was observed in the sclera (SC) and the subretina (RP)”.
